Test results taken from patent US20100120700A1, “METHODS AND COMPOSITIONS FOR TREATING CERVICAL CANCER” (priority 2000, published 2010).
Where “and” joins values, the source holds several entries; their conditions need not be identical. Equal values may be shown once.

Key:
Test in all cases: G assay PDZ-PL binding
Settings in all cases: peptide 10 uM, protein 5
[1] = target: T1, HEMBA 1003117 #226.2 domain 1 (Homo sapiens, UniProt Q96JH8)
T1 construct: made in house; host or cells: E. coli (DH5alpha, BL21 or JM109)
T1 sequence (Q96JH8 969-1068): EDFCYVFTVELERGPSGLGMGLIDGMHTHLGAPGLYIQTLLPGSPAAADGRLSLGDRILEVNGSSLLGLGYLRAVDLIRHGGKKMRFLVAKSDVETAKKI
Procedure, shortened: (§1)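 Plate ELISA: anti-GST antibody coat, BSA block, then GST/PDZ fusion (GST alone as negative control). Biotinylated PL peptide 20 uM (10 uM in G′ variant) added, 10 min 4 °C plus 20 min 25 °C; streptavidin-HRP, TMB, absorbance 450 nm.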

FLJ12615 domain 1 = target: T2, FLJ12615 domain 1 (Homo sapiens, UniProt Q8N3R9)
T2 construct: made in house; host or cells: E. coli (DH5alpha, BL21 or JM109)
T2 sequence (Q8N3R9 247-343): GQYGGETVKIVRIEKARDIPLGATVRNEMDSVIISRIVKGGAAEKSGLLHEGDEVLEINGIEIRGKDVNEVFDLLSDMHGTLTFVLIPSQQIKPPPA
Procedure, shortened: as §1

APXL1 domain 1 = target: T3, APXL1 domain 1 (Homo sapiens, UniProt Q13796)
T3 construct: made in house; host or cells: E. coli (DH5alpha, BL21 or JM109), vector pGEX-3X
T3 sequence (Q13796 with tags, fused parts or gaps): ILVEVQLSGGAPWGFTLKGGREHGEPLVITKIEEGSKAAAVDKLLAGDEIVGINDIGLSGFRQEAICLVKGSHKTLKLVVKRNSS
Procedure, shortened: as §1

KIAA0545 domain 1 = target: T4, KIAA0545 domain 1 (Homo sapiens, UniProt O60292)
T4 construct: made in house; host or cells: E. coli (DH5alpha or BL-21)
T4 sequence (O60292 955-1050): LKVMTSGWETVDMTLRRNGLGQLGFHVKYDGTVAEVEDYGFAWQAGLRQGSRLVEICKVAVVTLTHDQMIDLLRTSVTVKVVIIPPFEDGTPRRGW
Procedure, shortened: as §1

KIAA1095 domain 1 = target: T5, KIAA1095 domain 1 (Homo sapiens, UniProt Q9UPQ7)
T5 construct: made in house; host or cells: E. coli (DH5alpha, BL21 or JM109)
T5 sequence (Q9UPQ7 with tags, fused parts or gaps): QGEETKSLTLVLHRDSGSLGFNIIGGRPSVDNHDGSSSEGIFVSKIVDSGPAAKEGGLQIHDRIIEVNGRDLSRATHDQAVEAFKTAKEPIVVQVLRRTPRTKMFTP
Procedure, shortened: as §1

LIM Mystique domain 1 = target: T6, LIM Mystique domain 1 (Homo sapiens, UniProt Q96JY6)
T6 construct: made in house; host or cells: E. coli (DH5alpha, BL21 or JM109), vector pGEX-3X
T6 sequence (Q96JY6 1-91): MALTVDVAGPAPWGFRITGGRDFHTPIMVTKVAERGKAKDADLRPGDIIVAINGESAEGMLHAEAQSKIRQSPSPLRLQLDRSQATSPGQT
Procedure, shortened: as §1

X-11 beta domain 1 = target: T7, X-11 beta domain 1 (Homo sapiens, UniProt Q99767)
T7 construct: made in house; host or cells: E. coli (DH5alpha, BL21 or JM109)
T7 sequence (Q99767 with tags, fused parts or gaps): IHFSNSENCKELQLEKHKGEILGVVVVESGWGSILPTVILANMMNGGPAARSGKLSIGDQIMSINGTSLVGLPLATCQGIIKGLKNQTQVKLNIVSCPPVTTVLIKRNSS
Procedure, shortened: as §1

PDZK1 domain 2, 3, 4 = target: T8, PDZK1 domain 2, 3, 4 (Homo sapiens, UniProt Q5T2W1)
T8 construct: When more than one PDZ domain was cloned, the DNA portion cloned represents the PDZ domains and the cDNA portion located between individual domains; made in house; host or cells: E. coli (DH5alpha, BL21 or JM109)
Procedure, shortened: as §1

KIAA1526 #119.1 domain 1 = target: T9, KIAA1526 #119.1 domain 1 (Homo sapiens, UniProt Q9P202)
T9 construct: made in house; host or cells: E. coli (DH5alpha or BL-21)
T9 sequence (Q9P202 130-232): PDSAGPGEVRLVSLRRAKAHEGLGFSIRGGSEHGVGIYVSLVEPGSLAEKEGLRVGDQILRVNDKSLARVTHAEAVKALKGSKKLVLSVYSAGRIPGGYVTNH
Procedure, shortened: as §1

KIAA0380 #25.8 domain 1 = target: T10, KIAA0380 #25.8 domain 1 (Homo sapiens, UniProt O15085)
T10 construct: made in house; host or cells: E. coli (DH5alpha, BL21 or JM109), vector pGEX-3X
T10 sequence (O15085 45-123): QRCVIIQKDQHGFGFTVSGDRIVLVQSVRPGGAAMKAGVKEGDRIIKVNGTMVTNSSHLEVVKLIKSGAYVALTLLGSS
Procedure, shortened: as §1

LIM-RIL domain 1 = target: T11, LIM-RIL domain 1 (Homo sapiens, UniProt P50479, A39S/DEL20-20)
T11 construct: made in house; host or cells: E. coli (DH5alpha or BL-21)
T11 sequence (P50479 with tags, fused parts or gaps DEL20-20/A39S): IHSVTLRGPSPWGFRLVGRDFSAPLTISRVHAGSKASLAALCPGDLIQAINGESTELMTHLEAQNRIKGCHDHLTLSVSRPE
Procedure, shortened: as §1

RGS12 domain 1 = target: T12, RGS12 domain 1 (Homo sapiens, UniProt O14924)
T12 construct: made in house; host or cells: E. coli (DH5alpha, BL21 or JM109), vector pGEX-3X
T12 sequence (O14924 with tags, fused parts or gaps): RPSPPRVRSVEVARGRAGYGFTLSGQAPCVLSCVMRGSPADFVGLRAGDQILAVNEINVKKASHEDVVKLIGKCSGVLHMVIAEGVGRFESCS
Procedure, shortened: as §1

EBP50 #167.2 domain 1 = target: T13, EBP50 #167.2 domain 1 (Homo sapiens, UniProt O14745)
T13 construct: made in house; host or cells: E. coli (DH5alpha or BL-21)
T13 sequence (O14745 with tags, fused parts or gaps): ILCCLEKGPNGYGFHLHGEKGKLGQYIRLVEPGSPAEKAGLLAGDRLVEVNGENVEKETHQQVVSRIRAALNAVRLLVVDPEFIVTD
Procedure, shortened: as §1

20 mer peptide corresponding to the C-terminus of HPV16 E6 (PDZ ligand), biotinylated in binding assays; ends SSRTRRETQL (SEQ ID NO: 13) [HPV E6 #16]
Ave OD ([1]; A450 nm): 0.36 and 0.477 | OD S/N ([1]; vs GST only well): 1.66 and 2.27 | Ave OD (FLJ12615 domain 1; A450 nm): 0.4605 | OD S/N (FLJ12615 domain 1; vs GST only well): 2.24 | Ave OD (APXL1 domain 1; A450 nm): 0.4605 and 0.708 | OD S/N (APXL1 domain 1; vs GST only well): 3.14 and 2.96 | Ave OD (KIAA0545 domain 1; A450 nm): 0.4395 | OD S/N (KIAA0545 domain 1; vs GST only well): 3.96 | Ave OD (KIAA1095 domain 1; A450 nm): 2.7045 and 1.711 | OD S/N (KIAA1095 domain 1; vs GST only well): 13.13 and 7.96 | Ave OD (LIM Mystique domain 1; A450 nm): 0.5955 | OD S/N (LIM Mystique domain 1; vs GST only well): 2.84 | Ave OD (X-11 beta domain 1; A450 nm): 0.352 | OD S/N (X-11 beta domain 1; vs GST only well): 2.02 | Ave OD (PDZK1 domain 2, 3, 4; A450 nm): 0.518 | OD S/N (PDZK1 domain 2, 3, 4; vs GST only well): 2.64 | Ave OD (KIAA1526 #119.1 domain 1; A450 nm): 0.425 | OD S/N (KIAA1526 #119.1 domain 1; vs GST only well): 1.38 | Ave OD (KIAA0380 #25.8 domain 1; A450 nm): 0.603 | OD S/N (KIAA0380 #25.8 domain 1; vs GST only well): 3.58 | Ave OD (LIM-RIL domain 1; A450 nm): 0.449 | OD S/N (LIM-RIL domain 1; vs GST only well): 1.60 | Ave OD (RGS12 domain 1; A450 nm): 0.4295 and 0.661 | OD S/N (RGS12 domain 1; vs GST only well): 3.96 and 4.64 | Ave OD (EBP50 #167.2 domain 1; A450 nm): 0.3805 and 0.3555 | OD S/N (EBP50 #167.2 domain 1; vs GST only well): 1.94 and 2.28
